From patent US11878970B2, “Allosteric chromenone inhibitors of phosphoinositide 3-kinase (PI3K) for the treatment of disease” (Petra Pharma Corporation, priority 2021, dated 2024)

What was measured:
[1] = target: T1, PI3K-α (PIK3CA) wild-type (WT), p110α/p85α complex (Homo sapiens, UniProt P42336); test: PI3K-alpha kinase (PIK3CA) biochemical activity, ADP-Glo, wild-type; details: Soy PI lipid substrate
T1 construct: Recombinant, catalytically active human full length PIK3KA Wild-type and H1047R mutant; 6×His (N); purchased EMD Millipore Sigma 14-602M
Outline: (§1)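 ADP formation measured by ADP-Glo luminescence after reaction at 27 °C to about 10% ATP turnover, using 20 uM ATP, 50 uM PIP2diC8 or soy PI lipid, HEPES pH 7.4 with MgCl2. Enzyme (1-5 nM WT or H1047R p110α/p85α) and compound preincubated 1 h first; 10-point 1:3 curves fitted four-parameter for IC50.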

[2] = target: T2, PI3K-α (PIK3CA) H1047R mutant, p110α/p85α complex (Homo sapiens, UniProt P42336, H1047R); test: PI3K-alpha kinase (PIK3CA) biochemical activity, ADP-Glo, H1047R mutant; details: Soy PI lipid substrate
T2 construct: Recombinant, catalytically active human full length PIK3KA Wild-type and H1047R mutant; 6×His (N); purchased EMD Millipore Sigma 14-792M
Outline: as §1

T2 sequence (P42336 whole entry H1047R): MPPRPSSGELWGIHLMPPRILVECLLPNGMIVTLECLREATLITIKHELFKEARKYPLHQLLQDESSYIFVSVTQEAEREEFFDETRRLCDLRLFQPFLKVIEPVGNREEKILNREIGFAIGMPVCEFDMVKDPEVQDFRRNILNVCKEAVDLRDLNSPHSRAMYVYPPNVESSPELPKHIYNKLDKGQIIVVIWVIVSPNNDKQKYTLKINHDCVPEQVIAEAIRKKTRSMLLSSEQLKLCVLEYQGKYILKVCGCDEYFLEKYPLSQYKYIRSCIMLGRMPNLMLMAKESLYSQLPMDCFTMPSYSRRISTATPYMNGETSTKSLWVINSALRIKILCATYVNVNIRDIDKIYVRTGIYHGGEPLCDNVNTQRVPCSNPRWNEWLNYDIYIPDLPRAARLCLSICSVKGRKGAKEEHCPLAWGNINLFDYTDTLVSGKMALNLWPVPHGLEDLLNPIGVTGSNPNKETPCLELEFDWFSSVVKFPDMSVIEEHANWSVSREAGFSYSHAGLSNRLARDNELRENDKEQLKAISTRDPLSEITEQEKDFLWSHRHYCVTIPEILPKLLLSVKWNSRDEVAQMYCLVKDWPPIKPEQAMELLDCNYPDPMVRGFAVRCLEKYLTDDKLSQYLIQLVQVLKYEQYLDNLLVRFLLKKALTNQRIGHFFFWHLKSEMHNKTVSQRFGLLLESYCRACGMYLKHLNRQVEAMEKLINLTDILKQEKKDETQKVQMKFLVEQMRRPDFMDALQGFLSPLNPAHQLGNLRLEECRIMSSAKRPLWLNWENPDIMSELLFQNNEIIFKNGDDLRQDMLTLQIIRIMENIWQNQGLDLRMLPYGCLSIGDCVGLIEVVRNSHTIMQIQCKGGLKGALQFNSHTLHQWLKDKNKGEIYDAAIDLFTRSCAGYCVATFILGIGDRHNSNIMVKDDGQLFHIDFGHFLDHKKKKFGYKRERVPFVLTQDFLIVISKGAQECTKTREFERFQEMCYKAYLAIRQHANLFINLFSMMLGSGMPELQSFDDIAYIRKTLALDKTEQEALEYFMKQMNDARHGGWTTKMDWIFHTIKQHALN
T2 sequence (P27986 whole entry partner): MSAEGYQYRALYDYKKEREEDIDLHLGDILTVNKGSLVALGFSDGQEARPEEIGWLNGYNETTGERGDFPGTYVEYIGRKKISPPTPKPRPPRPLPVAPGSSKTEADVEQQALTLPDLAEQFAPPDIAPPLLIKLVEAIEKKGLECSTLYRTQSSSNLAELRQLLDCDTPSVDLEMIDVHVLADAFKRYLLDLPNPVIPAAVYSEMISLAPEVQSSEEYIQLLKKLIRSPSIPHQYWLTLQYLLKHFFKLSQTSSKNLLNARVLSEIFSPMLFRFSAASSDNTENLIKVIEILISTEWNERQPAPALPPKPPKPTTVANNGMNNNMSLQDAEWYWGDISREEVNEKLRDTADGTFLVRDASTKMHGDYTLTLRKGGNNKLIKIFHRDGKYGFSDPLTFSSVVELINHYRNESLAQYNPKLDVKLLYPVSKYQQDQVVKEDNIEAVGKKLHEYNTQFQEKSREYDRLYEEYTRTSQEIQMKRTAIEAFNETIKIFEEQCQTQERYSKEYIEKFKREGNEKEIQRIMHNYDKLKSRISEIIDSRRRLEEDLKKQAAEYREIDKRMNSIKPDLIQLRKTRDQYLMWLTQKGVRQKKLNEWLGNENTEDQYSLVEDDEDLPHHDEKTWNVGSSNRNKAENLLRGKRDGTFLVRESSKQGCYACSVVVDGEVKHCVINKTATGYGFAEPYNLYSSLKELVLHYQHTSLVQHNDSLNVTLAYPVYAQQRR

Row | IC50 [1] [µM] | IC50 [2] [µM] | Compound
1 | 0.5 to 1 | 0.5 to 1 | CC(Nc1ccc(Cl)nc1C(=O)O)c1cc(C(F)(F)F)cc2c(=O)cc(-c3cc(Cl)c4nn(C)cc4c3)oc12 (single isomer, unassigned) [Example 194, 6-Chloro-3-[1-[2-(7-chloro-2-methyl-indazol-5-yl)-4-oxo-6-(trifluoromethyl)chromen-8-yl]ethylamino]pyridine-2-carboxylic acid]
2 | 0.5 to 1 | < 0.5 | Cc1cc([C@@H](C)Nc2ccc(C)nc2C(=O)O)c2oc(-c3ccc4nn(C)cc4c3)c(C)c(=O)c2c1 [Example 200, 3-[[(1R)-1-[3,6-Dimethyl-2-(2-methylindazol-5-yl)-4-oxo-chromen-8-yl]ethyl]amino]-6-methyl-pyridine-2-carboxylic acid]
3 | 1 to 5 | < 0.5 | Cc1nc2ccc(-c3cc(=O)c4cc(C(F)(F)F)cc(C(C)Nc5ccc(Cl)nc5C(=O)O)c4o3)cc2s1 (single isomer, unassigned) [Example 167, 6-Chloro-3-[1-[2-(2-methyl-1,3-benzothiazol-6-yl)-4-oxo-6-(trifluoromethyl)chromen-8-yl]ethylamino]pyridine-2-carboxylic acid]
4 | < 0.5 | < 0.5 | Cc1cc(C(C)Nc2ccccc2C(=O)O)c2oc(-c3ccc4nn(C)cc4c3)c(C(F)(F)F)c(=O)c2c1 (single isomer, unassigned) [Example 208, 2-[1-[6-Methyl-2-(2-methylindazol-5-yl)-4-oxo-3-(trifluoromethyl)chromen-8-yl]ethylamino]benzoic acid]
5 | 0.5 to 1 | < 0.5 | Cc1cc(C(C)Nc2ccc(Cl)c(F)c2C(=O)O)c2oc(-c3ccc4nc(C)cn4c3)cc(=O)c2c1 (single isomer, unassigned) [Example 183, 3-chloro-2-fluoro-6-[1-[6-methyl-2-(2-methylimidazo[1,2-a]pyridin-6-yl)-4-oxo-chromen-8-yl]ethylamino]benzoic acid]

More lines, now with the values behind:

Row | Compound | IC50 [1] [µM] | IC50 [2] [µM]
6 | Cc1ccc2c(cnn2-c2cc(=O)c3cc(C)cc(C(C)Nc4ccccc4C(=O)O)c3o2)c1 (single isomer, unassigned) [Example 87, 2-[1-[6-Methyl-2-(5-methylindazol-1-yl)-4-oxo-chromen-8-yl]ethylamino]benzoic acid] | 1 to 5 | < 0.5
7 | Cc1cc(C(C)Nc2ccccc2C(=O)O)c2oc(-n3ncc4cc(F)ccc43)cc(=O)c2c1 (single isomer, unassigned) [Example 89, 2-[1-[2-(5-Fluoroindazol-1-yl)-6-methyl-4-oxo-chromen-8-yl]ethylamino]benzoic acid] | 1 to 5 | < 0.5
8 | COc1ccc2nc(-c3cc(=O)c4cc(C)cc(C(C)Nc5ccccc5C(=O)O)c4o3)cn2c1 (single isomer, unassigned) [Example 2, 2-[1-[2-(6-Methoxyimidazo[1,2-a]pyridin-2-yl)-6-methyl-4-oxo-chromen-8-yl]ethylamino]benzoic acid] | 1 to 5 | 0.5 to 1
9 | Cc1cc(C(C)Nc2ccc(C)nc2C(=O)O)c2oc(-c3cc4ccccc4[nH]3)cc(=O)c2c1 (stereo not shown) [Example 99, 3-[1-[2-(1H-Indol-2-yl)-6-methyl-4-oxo-chromen-8-yl]ethylamino]-6-methyl-pyridine-2-carboxylic acid] | 1 to 5 | 1 to 5
10 | Cc1cc(C(C)Nc2ccccc2C(=O)O)c2oc(-c3ccc4cc[nH]c4n3)cc(=O)c2c1 (stereo not shown) [Example 14, 2-[1-[6-Methyl-4-oxo-2-(1H-pyrrolo[2,3-b]pyridin-6-yl)chromen-8-yl]ethylamino]benzoic acid] | 1 to 5 | < 0.5
11 | Cc1cc(C(C)Nc2ccccc2C(=O)O)c2oc(-c3ccc4ccnn4c3)c(C)c(=O)c2c1 (single isomer, unassigned) [Example 157, 2-[1-(3,6-Dimethyl-4-oxo-2-pyrazolo[1,5-a]pyridin-6-yl-chromen-8-yl)ethylamino]benzoic acid] | 1 to 5 | < 0.5
